Data published in US7767817B2, “Water soluble boronic acid fluorescent reporter compounds and methods of use thereof” (priority 2003, dated 2010).
“And” between values parts separate entries of the source, which are not always exact repeats. Equal values may be shown once. Read-outs that look alike come from different tables or passages of the source. Blank lines part the entries; values can stand above or below the compound they belong to.

Assays:
[1] = Fluorescence binding study with fructose; details: for Association constant (Ka) with fructose: 0.1 M phosphate buffer pH 7.4, 1:1 complex assumed; for fluorescence intensity change ΔI/I0: pH 7.4
Protocol: (§1) For a typical sugar-BTBA fluorescent measurement, a 1.0×10^−5 M stock solution of BTBA in 0.10 M phosphate buffer at pH 7.4 was made as solution A. […] Solution B was titrated into solution A in order to make mixtures with a constant concentration of BTBA and a range of concentrations of the sugar. Each mixture was allowed to stand for at least 10 min, then 3.0 mL of the mixture was transferred into a cuvette for fluorescence measurement.
(§2) The association constants (Ka) were determined according to the method III in Valeur's publication (J. Phys. Chem. 1988, 92, 6233).

[2] = Fluorescence binding study with galactose; details: for Association constant (Ka) with galactose: 0.1 M phosphate buffer pH 7.4, 1:1 complex assumed; for fluorescence intensity change ΔI/I0: pH 7.4
Protocol: as §1, §2

[3] = Fluorescence binding study with mannose; details: for Association constant (Ka) with mannose: 0.1 M phosphate buffer pH 7.4, 1:1 complex assumed
Protocol: as §1, §2

[4] = Fluorescence binding study with glucose; details: for Association constant (Ka) with glucose: 0.1 M phosphate buffer pH 7.4, 1:1 complex assumed; for maximum fluorescence intensity increase: physiological pH; for fluorescence intensity change ΔI/I0: pH 7.4
Protocol: as §1, §2

[5] = Fluorescence intensity pH profile (apparent pKa); type: physicochemical
Source text: Since the fluorescence intensity increase upon binding with a sugar seems to be a general phenomenon, the fluorescence change mechanism of compound 5 at pH 7.4 was investigated. For this purpose, the fluorescence pH profiles of both compound 5 alone and compound 5 in the presence of fructose (0.5 M) were studied. The fluorescence intensity of 5 at 334 nm in the absence of sugars decreased upon changing the pH from 3 to 12 (FIG. 3). An apparent pKa of 7.0 was observed, which is assigned to the boronic acid moiety. […] It is well-known that the binding of a diol to boronic acid often lowers the pKa of the boron species) (Springsteen, G.; Wang, B. Tetrahedron 2002, 58, 5291-5300). Therefore, the pKa, which drops from 7.0 to 4.0, can also be reasonably assigned to boron. […] It seems that the fluorescence intensity change of compound 5 is also due to diol's perturbation as that of 8-quinolineboronic acid.
To examine the relationship between the fluorescence intensity changes and the boron ionization states, the pH profile of the fluorescence intensity in the absence and presence of fructose and glucose at a fixed concentration (50 mM) was also studied (FIG. 6). […] It is worth mentioning that the pKa of the protonated dimethyl amino group of 1 is […] the emission wavelength of 1 with the protonated dimethyl amino group at low pH is about 238 nm. Therefore, the fluorescence intensity of 1 at 445 nm was not affected by the protonated dimethyl amino group. The fluorescence intensity changes correspond to the boronic acid pKa (9.4) and therefore hybridization changes, which was responsible for the fluorescence intensity changes observed.
Since the fluorescence intensity increase upon binding with a sugar seems to be a general phenomenon, next the conditions under which optimal fluorescence intensity changes are observed upon addition of a sugar was investigated. For this purpose, the fluorescence pH profiles of both compound 6 alone and in the presence of fructose (0.5 M) were studied. The fluorescence intensity of 6 in the absence of sugars increased by 17-fold upon changing the pH from 3 to 12 (FIG. 10). […] Furthermore, one would expect the pKa values of the other two ionizable groups, the carboxylic acid and the quinolinium groups, to be less than 7. Therefore, assigning the pKa at 7.9 to the boronic acid moiety is the most reasonable option. […] It is well-known that the binding of a diol to boronic acid often lowers the pKa of the boron species. […] Upon addition of fructose, the pKa of the boron drops to about 5.2, which ensures that most of the boron species are in the anionic tetrahedral state at physiological pH.
(§3) Since the fluorescence intensity increase upon binding with a sugar seems to be a general phenomenon, the use of 5-QBA functions as a fluorescent probe for diols was investigated. The fluorescence pH profiles of both 5-QBA alone and 5-QBA in the presence of D-fructose (0.5 M) were investigated. […] In order to assign each pKa, the ^11B NMR spectra of 5-QBA and its ester in a mixed deuterated methanol-water (1:1) solvent at different pH were obtained. Methanol was used so that the concentration of 5-QBA can be increased to 57 mM so as to allow for a meaningful NMR determination within a reasonable period of time.
To understand the structural features associated with the fluorescence intensity changes, we studied the pH profiles of the fluorescence intensity in the absence (FIG. 18) and presence of fructose and glucose at a fixed concentration (50 mM). […] The fluorescence intensity at 513 nm increased very quickly when pH increased from 1.78 to 7.04 (thin lines in FIG. 18), and then decreased in the pH range of 7.04-10.54 (thick lines in FIG. 18).

[6] = Fluorescence binding study with arabinose; details: 0.1 M phosphate buffer pH 7.4
Protocol: For a typical sugar-BTBA fluorescent measurement, a 1.0×10^−5 M stock solution of BTBA in 0.10 M phosphate buffer at pH 7.4 was made as solution A. The sugar was added to a portion of solution A to make a 1.0×10^−5 M BTBA, 1.0×10^−3 M sugar solution as solution B. Solution B was titrated into solution A in order to make mixtures with a constant concentration of BTBA and a range of concentrations of the sugar. Each mixture was allowed to stand for at least 10 min, then 3.0 mL of the mixture was transferred into a cuvette for fluorescence measurement.
as §2

[7] = 11B NMR at different pH (pKa assignment); type: physicochemical; details: absence of sugar; 11B NMR in deuterated methanol-water (1:1); read-out: second pKa corresponding to boronic acid ionization
Source text: as §3
It should be noted that the addition of 50% methanol to water solution results in minimal changes of the solution pH. The boron signal of 5-QBA appeared at 30.0 ppm at both pH 2.0 and 7.0, consistent with the neutral trigonal boron. At an increased pH (7.5), two boron signals at 30.0 and 10.0 ppm were observed indicating a mixture of both the neutral and anionic species. […] At pH 12, a single peak at 5.7 ppm was found indicating the presence of only the anionic tetrahedral state. […] This pKa assignment is opposite to that of 8-QBA. For the fructose ester of 5-QBA, we observed the same chemical shifts (at about 10.5 ppm) at pH 6.0 and 11. […] Such a pKa-switching seems to correspond to the highest fluorescence intensity change at pH 5.8 (FIG. 13).

[8] = Fluorescence binding study with sorbitol
Protocol: as §1, §2

[9] = Fluorescence binding study with tagatose
Protocol: as §1, §2

[10] = Fluorescence quantum yield; type: physicochemical; details: 0.1 M phosphate buffer pH 7.4
Protocol: The effect of various carbohydrates on the fluorescent properties of compound 1 was determined in phosphate buffer at pH 7.4. The emission spectral change of 1 with fructose at different concentrations in 0.1 M aqueous phosphate buffer (pH 7.4) is shown in FIG. 4. A 41-fold emission intensity increase is observed in presence of 50 mM fructose. To the best of our knowledge, such a large emission intensity increase has never been reported for boronic acid-based saccharide sensors involving the ICT mechanism. The quantum yields of 1 in the absence (φF=0.010) and in the presence of 50 mM fructose (φF=0.42) in 0.1 M phosphate buffer (pH 7.4) were obtained using 8-quinoline boronic acid (φF=0.58 in 12 M H2SO4) as a reference compound.
For example, addition of fructose (50 mM) to the solution of 7 induced a 36-fold fluorescence intensity increase at 433 nm and a 0.55-fold fluorescence intensity decrease at 513 nm (FIG. 14). […] To the best of our knowledge, such large emission intensity changes at two wavelengths have never been reported for boronic acid-based saccharide sensors. The quantum yields (φF) of 7 were determined as 0.07 at 513 nm in 0.1 M phosphate buffer (pH 7.4) in the absence of a sugar and 0.23 at 433 nm in the presence of 50 mM of fructose, using 8-quinoline boronic acid (φF=0.58 in 12 M H2SO4) as a reference compound.

[11] = literature value (Springsteen, Wang); cited from earlier work
[12] = literature value (Springsteen, Wang); cited from earlier work; remark: listed apart in the source
[13] = literature value; cited from earlier work
[14] = in 12 M H2SO4; reference compound; cited from earlier work
[15] = 0.1 M phosphate buffer, absence of sugar, 0.1 M phosphate buffer, read-out: apparent pKa assigned to the boronic acid moiety
[16] = 0.1 M phosphate buffer pH 7.4, 1:1 complex assumed

Association constant (Ka) with fructose [1]: 656 ± 28 M⁻¹ | Association constant (Ka) with galactose [2]: 19 M⁻¹ and 19 ± 0.7 M⁻¹ | Association constant (Ka) with mannose [3]: 30 ± 1.4 M⁻¹ | Association constant (Ka) with glucose [4]: 27 M⁻¹ and 27 ± 4.9 M⁻¹ | pKa [5, 15]: 7
Compound: OB(O)c1cc2ccccc2s1 [Compound 5, 2-Benzothienylboronic acid]

Association constant (Ka) with fructose [1]: 924 ± 88 M⁻¹ | binding constant with D-fructose, increase compared with 8-QBA ([1]; 5-QBA versus 8-QBA): more than 8 folds | Association constant (Ka) with galactose [2]: 90 ± 2 M⁻¹ | Association constant (Ka) with mannose [3]: 60 ± 2 M⁻¹ | Binding constant with arabinose [6]: 121 ± 16 M⁻¹ | pKa ([5]; phosphate buffer, absence of a sugar, read-out: pKa assigned to the quinolinium nitrogen): 5.2 | pKa [7]: 7 to 12
Compound: OB(O)c1cccc2ncccc12 [Compound 3]

emission intensity increase ([1]; 25 mM fructose, phosphate buffer pH 7.4): 25 fold | maximum fluorescence intensity increase ([4]; glucose 0.2 M): 6 fold | pKa [5, 15]: 7.9
Compound: O=C(O)c1cc(-c2ccc(B(O)O)cc2)nc2ccccc12 [Compound 6, 2-(4-phenylboronic acid)-quinoline-4-carboxylic acid]

emission intensity increase ([1]; 50 mM fructose, 0.1 M aqueous phosphate buffer pH 7.4): 41 fold | fluorescence intensity change ΔI/I0 ([1]; fructose 0.025 M, λex 270 nm, λem 400 nm): 25 (0.025) | fluorescence intensity change ΔI/I0 ([1]; fructose 0.05 M, λex 300 nm, λem 445 nm): 41 (0.05) | fluorescence intensity change ([1]; fructose at concentrations above 50 mM, physiological pH): more than 40 fold | fluorescence intensity change ΔI/I0 ([2]; galactose 0.025 M, λex 270 nm, λem 400 nm): 16 (0.025) | fluorescence intensity change ΔI/I0 ([2]; galactose 0.50 M, λex 300 nm, λem 445 nm): 35 (0.50) | Association constant (Ka) with mannose [3]: 48 ± 5 M⁻¹ | fluorescence intensity change ΔI/I0 ([3]; mannose 0.025 M, pH 7.4, λex 270 nm, λem 400 nm): 14 (0.025) | Association constant (Ka) with glucose [4]: 4.0 ± 0.1 M⁻¹ and 5.1 ± 1.0 M⁻¹ | fluorescence intensity change ΔI/I0 ([4]; glucose 0.20 M, λex 270 nm, λem 400 nm): 6 (0.20) | fluorescence intensity change ΔI/I0 ([4]; glucose 1.0 M, λex 300 nm, λem 445 nm): 17 (1.0) | maximum fluorescence intensity increase ([4]; glucose 1 M): 17 fold | Association constant (Ka) with sorbitol [8, 16]: 226 ± 5 M⁻¹ | fluorescence intensity change ΔI/I0 ([8]; sorbitol 0.10 M, pH 7.4, λex 300 nm, λem 445 nm): 42 (0.10) | fluorescence intensity change ([8]; sorbitol at concentrations above 50 mM, physiological pH): more than 40 fold | Association constant (Ka) with tagatose [9, 16]: 116 ± 2 M⁻¹ | fluorescence intensity change ΔI/I0 ([9]; tagatose 0.02 M, pH 7.4, λex 300 nm, λem 445 nm): 32 (0.02) | pKa [5, 15]: 9.4 | quantum yield φF ([10]; absence of sugar): 0.010 | quantum yield φF ([10]; presence of 50 mM fructose): 0.42
Compound: CN(C)c1ccc(B(O)O)c2ccccc12 [Compound 1, 4-(dimethylamino)-naphthalene boronic acid]

Compound: OB(O)c1ccccc1 [phenylboronic acid]
Ka for glucose [11]: 5 M⁻¹ | Ka for galactose [12]: 15 M⁻¹ | Ka for fructose [13]: 162 M⁻¹

Compound: OB(O)c1cccc2cccnc12 [Compound 4, 8-quinolineboronic acid]
quantum yield φF [14]: 0.58
